Test results published in patent US8242118B2, “Arylsulfonamide derivatives for use as CCR3 antagonists in the treatment of inflammatory and immunological disorders” (Axikin Pharmaceuticals Inc., priority 2001, dated 2012).

Experiments:
[1] = molecular target: T1, Human CCR3 (Homo sapiens, UniProt P51677); assay: Receptor binding assay (RBA), [125I]-eotaxin; conditions: human CCR3-transformed K562 cells, 0.1 nM [125I]-eotaxin; compounds of about 40 to 90% purity; read-out: Activity grade RBA (IC50 class)
T1 construct: The cloned CCR3 cDNA was constructed with pcDNA3 vector and transfected into a IC562 cell line; expressed in transfected cells
T1 sequence (P51677 1-355): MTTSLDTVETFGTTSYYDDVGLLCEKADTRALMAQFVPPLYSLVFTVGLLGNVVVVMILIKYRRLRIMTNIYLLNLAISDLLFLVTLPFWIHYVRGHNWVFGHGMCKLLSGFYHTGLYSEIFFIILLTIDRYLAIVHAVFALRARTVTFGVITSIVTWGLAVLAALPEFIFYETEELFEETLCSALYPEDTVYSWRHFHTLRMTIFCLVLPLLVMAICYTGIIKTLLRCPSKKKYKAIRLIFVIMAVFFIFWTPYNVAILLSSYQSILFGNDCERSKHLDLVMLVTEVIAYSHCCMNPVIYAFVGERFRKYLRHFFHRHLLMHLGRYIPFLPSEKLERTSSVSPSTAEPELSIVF
Procedure: [Determination of IC50 Values of Compounds in Receptor Binding Assay]
• Human CCR3-transformed K562 cells were used. The cloned CCR3 cDNA was constructed with pcDNA3 vector and transfected into a IC562 cell line. The human CCR3-transformed K562 cells were maintained in RPMI-1640 (Cat.#22400-089, Life Technologies) supplemented with 10% FCS (Cat.#A-1115-L, Hyclone), 55 μM 2-mercaptoethanol (Cat.#21985-023, Life Technologies), 1 mM sodium pyruvate (Cat.#11360-070, Life Technologies), 100 units/ml of penicillin G and 100 μg/ml of streptomycin (Cat.#15140-122, Life Technologies), and 0.4 mg/ml of Geneticin (Cat.#10131-035, Life Technologies)(hereinafter called “culture medium”). Before the receptor binding assay, cells were pretreated with 5 mM sodium butyrate (Cat.#193-01522, Wako)-containing the culture medium (2×10^5 cells/ml) for 20-24 hours to increase the expression of CCR3. (2) Receptor Binding Assay (RBA) • Butyrate-pretreated cells, suspended in binding buffer (25 mM HEPES pH 7.6, 1 mM CaCl2, 5 mM MgCl2, 0.5% BSA, 0.1% NaN3) at a cell density of 2×10^6 cells/ml, were added into 60 μl/well in the 96-well round bottom polypropylene plate (Cat.#3365, Costar). Compounds, diluted with the binding buffer (4-times higher concentration of the final concentration), were added into 30 μl/well in the polypropylene plate. [^125I]-labeled human eotaxin (Cat.#IM290, Amersham Pharmacia Biotech), diluted with the binding buffer at the concentration of 0.4 nM (final concentration; 0.1 nM), was added into 30 μl/well in the polypropylene plate. Total 120 μl/well of binding reaction mixture (60 μl/well of cell suspension, 30 μl/well of compound solution, and 30 μl/well of [^125I]-labeled eotaxin) were incubated in the polypropylene plate for 1 hour at room temperature after the incubation, 100 μl/well of the reaction mixture was transferred to a filtration plate (Cat.#MAFB-N0B, Millipore), and washed with the washing buffer (25 mM HEPES pH 7.6, 1 mM CaCl2, 5 mM MgCl2, 0.5% BSA, 0.1% NaN3, 0.5 M NaCl) twice. The 96-well filtration plate was pretreated with 100 μl/well of 0.5% polyethylenimine (Cat.#P-3143, Sigma) for 2-4 hours at room temperature and washed with the washing buffer twice before use. The non-specific binding was determined by parallel incubation in the presence of 500 nM of non-labeled eotaxin (Cat.#23209, Genzyme Techne). The radioactivities remained on the filter were measured by liquid scintillation counter (TopCount™, Packard) after an addition of 45 μl/well of scintillant (Microscint20, Cat.#6013621, Packard). The inhibition percent at each concentration of compound was calculated, and IC50 values were determined from the inhibition curve. [Determination of IC50 Values of Compounds in Calcium Mobilization Assay] (IC50 Ca2+) (1) Cell • Human CCR3-transformed K562 cells were used. The human CCR3-transformed K562 cells were maintained in RPMI-1640 supplemented with 10% FCS, 55 μM 2-mercaptoethanol (Cat.#21985-023, Life Technologies), 1 mM sodium pyruvate, 100 units/ml of penicillin G and 100 μg/ml of streptomycin and 0.4 mg/ml of Geneticin. Before the calcium mobilization assay, cells were pretreated with 5 mM sodium butyrate-containing the culture medium (2×10^5 cells/ml) for 20-24 hours to increase the expression of CCR3. (2) Calcium Mobilization Assay • Butyrate-pretreated cells were loaded with Fluo-3AM (Cat.#F-1242, Molecular Probes) in loading buffer (Hanks' solution Cat.#05906 Nissui, 20 mM HEPES pH 7.6, 0.1% BSA, 1 mM probenecid Cat.#P-8761 Sigma, 1 μM Fluo-3AM, 0.01% pluronic F-127 Cat.#P-6866 Molecular Probes) at a cell density of 1×10^7 cells/ml. Then, cells were washed with calcium assay buffer (Hanks' solution Cat.#05906 Nissui, 20 mM HEPES pH 7.6, 0.1% BSA, 1 mM Probenecid Cat.#P-8761 Sigma). The cell suspension (3.3×10^6 cells/ml) was added into 60 μl/well in the 96-well clear bottom black plate (Cat.#3904, Costar). […]

## N#Cc1ccc(Oc2cc(Cl)cc(Cl)c2)c(S(=O)(=O)N2CCN3CCCC3C2)c1 (centres unmarked) [Example 13-12]
other
  melting point: 161 °C
[1]
  IC50: < 1000 nM
